The values below come from paper doi:10.1101/2024.07.27.605435v1, “A fluorescent biosensor for the visualization of agmatine” (biorxiv, 2024).

For this test, the target named is T1, PotF (Escherichia coli, UniProt P31133, A182D/S87Y).
T1 sequence (P31133 27-370 S87Y/A182D): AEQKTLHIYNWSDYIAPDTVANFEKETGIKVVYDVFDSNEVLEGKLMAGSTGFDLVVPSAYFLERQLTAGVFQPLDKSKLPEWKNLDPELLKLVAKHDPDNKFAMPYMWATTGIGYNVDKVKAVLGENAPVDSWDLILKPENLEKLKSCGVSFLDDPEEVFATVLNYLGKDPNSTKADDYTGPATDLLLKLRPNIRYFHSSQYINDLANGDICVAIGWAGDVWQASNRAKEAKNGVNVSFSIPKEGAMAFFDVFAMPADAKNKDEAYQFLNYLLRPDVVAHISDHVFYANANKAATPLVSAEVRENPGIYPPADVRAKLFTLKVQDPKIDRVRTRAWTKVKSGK
The test is described as follows: isothermal titration calorimetry; crystal structure of the complex solved here. In kind it is binding. For orientation: In ITC the heat of successive injections is recorded.

`N=C(N)NCCCCN` [agmatine]: the affinity, expressed as Kd, was 300 nM.

Usually Kd stands for the constant that tells how readily two partners part at equilibrium.
